Reference: patent publication US20230373989A1, “N-PHENYLAMINOCARBONYL PYRIDINO-, PYRIMIDINO AND BENZO-TROPANES AS MODULATORS OF GPR65” (PATHIOS THERAPEUTICS LIMITED, priority 2020, published 2023)
Read-outs that look alike come from different tables or passages of the source.

Target: T1, human recombinant GPR65 (Homo sapiens, UniProt Q8IYL9)
T1 construct: host or cells: 1321N1 human astrocytoma cells (1321N1-hrGPR65)
Experiment: Human GPR65 cAMP HTRF antagonist assay
Assay type: cell-based
Summary of the method: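 1321N1 astrocytoma cells stably expressing GPR65 were preincubated with compound for 30 min at room temperature in KRH pH 7.6 with 1 mM IBMX and 200 μM EDTA. They were then stimulated at assay pH 7.2 for 30 min, with controls at pH 7.9. cAMP was read by HTRF (665/620 nm), normalised to controls and fitted by 4-parameter logistic to give IC50.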

T1 sequence (Q8IYL9 whole entry): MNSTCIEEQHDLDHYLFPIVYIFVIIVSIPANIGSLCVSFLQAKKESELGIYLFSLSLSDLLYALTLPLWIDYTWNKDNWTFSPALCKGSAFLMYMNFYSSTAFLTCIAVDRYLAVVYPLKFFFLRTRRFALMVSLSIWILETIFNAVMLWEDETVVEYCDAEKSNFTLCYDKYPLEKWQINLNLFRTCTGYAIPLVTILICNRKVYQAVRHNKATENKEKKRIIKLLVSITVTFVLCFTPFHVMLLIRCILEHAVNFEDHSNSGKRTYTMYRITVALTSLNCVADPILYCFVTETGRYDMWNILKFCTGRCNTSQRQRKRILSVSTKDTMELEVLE

SMILES | IC50 | IC50 (1321N1-hrGPR65 cells, assay pH 7.2, cAMP HTRF, read-out: hGPR65 IC50 (activity class))
O=C(Nc1ccc(Br)c(Cl)c1)N1[C@H]2CC[C@@H]1c1c[nH]c(=O)cc1C2 [Compound 143, (6S,9R)-N-(4-Bromo-3-chlorophenyl)-3-oxo-3,5,6,7,8,9-hexahydro-2H-6,9-epiminocyclohepta[c]pyridine-10-carboxamide] | < 0.5 µM | –
Nc1ccc2c(c1)CC1CCC2N1C(=O)Nc1ccc(Cl)c(Cl)c1 (racemic) [Compound 73, (±)-2-Amino-N-(3,4-dichlorophenyl)-6,7,8,9-tetrahydro-5H-5,8-epiminobenzo[7]annulene-10-carboxamide] | – | > 5 µM
